We go through ten compounds from PubChem BioAssay (NCI).

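Exposure lasted 48 hours, with cells grown in 96-well plates and compounds tested at five concentrations. The concentration for full growth arrest is given as TGI.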 Where a SMILES comes first, the peptide text is derived from it. The star is where a group is joined. Cbz = O=C(OCc1ccccc1)*

Some test systems named below: BT-549 breast; SF-295 CNS; MDA-N; PC-3 prostate; NCI-H23 lung; OVCAR-3 ovarian; MDA-MB-435; HS 578T breast; HT29 colon; SK-MEL-5 melanoma; ACHN renal.
What all share (assay): NCI-60 cell line screen, 48 h

For `Cn1c(=O)n(CC(Br)CBr)c(=O)n(CC(Br)CBr)c1=O` (stereo not given), the TGI in the assay on BT-549 breast, with SF-295 CNS, in the assay with MDA-N, in the assay on PC-3 prostate, with NCI-H23 lung and in the assay on OVCAR-3 ovarian was greater than 100 µM throughout. The TGI was greater than 100 µM with MDA-MB-435; greater than 100 µM with HS 578T breast; 54.6 µM with HT29 colon; 32.9 µM with SK-MEL-5 melanoma; greater than 100 µM in the assay with ACHN renal.
Turning to `CCOC(=O)C(C)NC(=O)C(C)NC(=O)C(C)NC(=O)C(C)NC(=O)C(C)NC(=O)C(C)NC(=O)C(C)NC(=O)OCc1ccccc1` (stereo not given) (Cbz-AAAAAAA-OEt; configuration not given here), the TGI in the assay on BT-549 breast, in the assay on SF-295 CNS, in the assay with MDA-N, in the assay on PC-3 prostate, in the assay on NCI-H23 lung and in the assay with OVCAR-3 ovarian was greater than 100 µM each time. In addition, the TGI with MDA-MB-435, in the assay with HS 578T breast, in the assay on HT29 colon, with SK-MEL-5 melanoma and in the assay with ACHN renal was greater than 100 µM throughout.
Take `O=C(/C=C/c1ccc(O)c(O)c1)OCCOC(=O)/C=C/c1ccc(O)c(O)c1`: the TGI is greater than 100 µM in the assay with BT-549 breast; 44.1 µM in the assay with SF-295 CNS; 41.6 µM in the assay on MDA-N; 86.5 µM in the assay on PC-3 prostate; greater than 100 µM with NCI-H23 lung; 39 µM with OVCAR-3 ovarian. In addition, the TGI was 98 µM in the assay on MDA-MB-435; greater than 100 µM with HS 578T breast; 43.4 µM with HT29 colon; 32.7 µM in the assay on SK-MEL-5 melanoma; 85.8 µM with ACHN renal.
`CCOC(=O)c1c(SCCO)n(-c2ccccc2)c(=S)n(-c2ccccc2)c1=O`: the TGI with BT-549 breast, in the assay with SF-295 CNS, in the assay on MDA-N, with PC-3 prostate, with NCI-H23 lung and in the assay on OVCAR-3 ovarian was greater than 100 µM throughout. Besides, the TGI in the assay on MDA-MB-435, in the assay with HS 578T breast, in the assay on HT29 colon, with SK-MEL-5 melanoma and in the assay on ACHN renal was greater than 100 µM in each case.
Regarding `Cc1cc(=Nc2ccc3c(c2)c(N)cc(C)[n+]3C)nc(N)n1C`, the TGI in the assay on BT-549 breast, with SF-295 CNS, in the assay on MDA-N, with PC-3 prostate, with NCI-H23 lung and in the assay with OVCAR-3 ovarian was greater than 100 µM each time. In addition, the TGI in the assay with MDA-MB-435, in the assay on HS 578T breast, in the assay on HT29 colon, in the assay with SK-MEL-5 melanoma and in the assay with ACHN renal was greater than 100 µM each time.
On to `CC1(C)CC(=O)c2c(nc3ccc4ccccc4c3c2-c2ccc(NC(=O)CCCCC(=O)Nc3ccc(-c4c5c(nc6ccc7ccccc7c46)CC(C)(C)CC5=O)cc3)cc2)C1`, for which the TGI with BT-549 breast, in the assay with SF-295 CNS, in the assay with MDA-N, in the assay with PC-3 prostate, in the assay with NCI-H23 lung and in the assay with OVCAR-3 ovarian was greater than 100 µM throughout. Besides, the TGI in the assay on MDA-MB-435, in the assay on HS 578T breast, with HT29 colon, in the assay with SK-MEL-5 melanoma and in the assay on ACHN renal was greater than 100 µM each time.
Turning to `Cc1n[nH]c(=O)n1N=C(c1ccccc1)c1ccccc1`, the TGI in the assay with BT-549 breast, with SF-295 CNS, with MDA-N, with PC-3 prostate, in the assay with NCI-H23 lung and in the assay with OVCAR-3 ovarian was greater than 100 µM each time. Further, the TGI in the assay on MDA-MB-435, in the assay on HS 578T breast, in the assay on HT29 colon, with SK-MEL-5 melanoma and with ACHN renal was greater than 100 µM throughout.
For the compound `COC(=O)C1=C(C)NC(C)=C([N+](=O)[O-])C1c1cccc(NO)c1` (stereo not given), the TGI in the assay on BT-549 breast is 16.4 µM; in the assay on SF-295 CNS, 23.1 µM; in the assay with MDA-N, 4.14 µM; in the assay with PC-3 prostate, 26.1 µM; in the assay with NCI-H23 lung, greater than 100 µM; in the assay on OVCAR-3 ovarian it was 19.5 µM. For the same compound, the TGI in the assay on MDA-MB-435 was 5.3 µM; in the assay with HS 578T breast, 38.6 µM; in the assay with HT29 colon it was 9.79 µM; in the assay on SK-MEL-5 melanoma it was 15 µM; with ACHN renal, greater than 44.9 µM.
Consider `C[C@@H]1CCC2[C@@H](C)C(=O)O[C@@H]3C4C[C@@H]1[C@@]23OO[C@@]4(C)O` (stereo not given in full), for which the TGI in the assay with BT-549 breast, in the assay with SF-295 CNS, in the assay on MDA-N, with PC-3 prostate, in the assay on NCI-H23 lung and in the assay with OVCAR-3 ovarian was greater than 100 µM throughout. Further, the TGI with MDA-MB-435, with HS 578T breast, in the assay on HT29 colon, in the assay on SK-MEL-5 melanoma and with ACHN renal was greater than 100 µM each time.
`c1ccc(-c2cc(-c3cc(-c4ccccc4)n(-c4ccccc4)n3)nn2-c2ccccc2)cc1`: the TGI in the assay on BT-549 breast, with SF-295 CNS, in the assay on MDA-N, in the assay on PC-3 prostate, in the assay on NCI-H23 lung and in the assay with OVCAR-3 ovarian was greater than 100 µM throughout. The TGI in the assay with MDA-MB-435, with HS 578T breast, in the assay with HT29 colon, in the assay with SK-MEL-5 melanoma and in the assay on ACHN renal was greater than 100 µM in each case.
